Experimental data published in patent US5525523A, “Binding method for FK-506- and rapamycin-like drugs with a novel immunophilin” (Children's Research Institute, priority 1994, dated 1996).

What was measured:
FKBP-14.6 [1] = test: Saturation binding of [^3 H]-dihydro FK-506 (LH-20 assay, Scatchard and Hill plots); design: species or system calf; conditions: for Kd: saturation, eight concentrations of labeled FK-506 (0.25-12 nM), read-out: Kd, single high affinity binding site
Protocol: (§1) Binding of [^3 H]-dihydro FK-506 to protein fractions was assessed using the LH-20 assay as described by Handschumacher et al., Science, 226:544 (1984). Briefly, in a final volume of 250 μl, labeled FK-506 (2-5.35 nM in EtOH) and 2-5 μg protein (200 μl) were preliminarily incubated, and the competition reaction begun by the addition of varying concentrations of unlabeled FK-506 or rapamycin. Following 20 minutes at room temperature, a 200 μl aliquot of the reaction mixture was filtered through a 1.8 mL bed-volume Sephadex LH-20 column equilibrated with 20 mM Tris buffer, pH 7.2, containing 5 mM 2-mercaptoethanol and 0.05 % NAN3. Elution with five 250 μL portions of the assay buffer separated protein-bound [^3 H]-dihydro FK-506 from free labeled drug (Sjovall et al., in Giddlings et al., Advances in Chromatography, Marcel Dekker, Inc., N.Y., vol. 6, pp. 119-170 (1968)). Radioactivity in the 1.25 mL eluate was measured by liquid scintillation spectrometry (Optima Gold Scintillation cocktail, Packard Chemicals, Meriden, Conn.) operating at 59% efficiency. Non-specific binding was estimated by the addition of 1 μM unlabeled FK-506, which displaced ≥95% of the bound radioligand from binding sites.
To obtain binding site information for the FKBP-14.6 protein, Scatchard plots were obtained in saturation experiments using eight concentrations of labeled FK-506 (0.25-12 nM) in triplicate (FIG. 4A). In FIG. 4A, specific binding is shown by (-.cndot.-.cndot.-) and non-specific binding by (- - -). Data were analyzed with the EBDA and Ligand Corporation programs.

FKBP-14.6 [2] = test: Competition binding against [^3 H]-dihydro FK-506 (LH-20 assay); design: species or system calf; conditions: for Kd: 6 nM [^3 H]-dihydro FK-506, rapamycin 0.1 nM-1 μM, 0.2% Tween-20, 50% receptor occupation
Protocol: as §1
To determine if rapamycin interacted with FK-506's binding site on FKBP-14.6, competition studies were carried out using 6 nM [^3 H]-dihydro FK-506 and 8 concentrations of rapamycin (0.1 nM-1 μM) in a buffer containing 0.2% Tween-20. Unlabeled FK-506 (1 μM) was used to define nonspecific binding.

SMILES: C=CC[C@@H]1/C=C(\C)C[C@H](C)C[C@H](OC)[C@H]2O[C@@](O)(C(=O)C(=O)N3CCCC[C@H]3C(=O)O[C@H](/C(C)=C/[C@@H]3CC[C@@H](O)[C@H](OC)C3)[C@H](C)[C@@H](O)CC1=O)[C@H](C)C[C@@H]2OC [FK-506]
- binding site Bmax (FKBP-14.6 [1]; Scatchard analysis, purified 14.6 kDa protein): about 67 nmoles/mg protein
- bound radioligand displaced from binding sites (FKBP-14.6 [2]; 1 μM unlabeled FK-506, 20 min): ≥ 95%

SMILES: CO[C@H]1C[C@@H]2CC[C@@H](C)[C@@](O)(O2)C(=O)C(=O)N2CCCC[C@H]2C(=O)O[C@H]([C@H](C)C[C@@H]2CC[C@@H](O)[C@H](OC)C2)CC(=O)[C@H](C)/C=C(\C)[C@@H](O)[C@@H](OC)C(=O)[C@H](C)C[C@H](C)/C=C/C=C/C=C/1C [Rapamycin]
- displacement of [^3 H]-dihydro FK-506 (manner) (FKBP-14.6 [2]; 6 nM [^3 H]-dihydro FK-506, 8 concentrations of rapamycin): biphasic manner
- Kd (FKBP-14.6 [2]; read-out: Kd, high affinity binding site): 0.023 nM
- Kd (FKBP-14.6 [2]; read-out: Kd, low affinity binding site): 226 nM

SMILES: CCC[C@@H]1/C=C(\C)C[C@H](C)C[C@H](OC)[C@H]2O[C@@](O)(C(=O)C(=O)N3CCCC[C@H]3C(=O)O[C@H](/C(C)=C/[C@@H]3CC[C@@H](O)[C@H](OC)C3)[C@H](C)[C@@H](O)CC1=O)[C@H](C)C[C@@H]2OC [[^3 H]-dihydro FK-506]
- Kd (FKBP-14.6 [1]; purified 14.6 kDa protein, listed as [^3 H]-FK-506): ~1.77 nM
- Kd (FKBP-14.6 [1]; purified 14.6 kDa protein): 1.77 nM

SMILES: [3H]CC([3H])C[C@@H]1/C=C(\C)C[C@H](C)C[C@H](OC)[C@H]2O[C@@](O)(C(=O)C(=O)N3CCCC[C@H]3C(=O)O[C@H](/C(C)=C/[C@@H]3CC[C@@H](O)[C@H](OC)C3)[C@H](C)[C@@H](O)CC1=O)[C@H](C)C[C@@H]2OC (some centres unmarked) [[^3 H]-dihydro FK-506]
- Hill coefficients (FKBP-14.6 [1]; saturation experiments, single class of binding sites): near unity
